In PMC7162861, “Synthesis, cytotoxicity, pharmacokinetic profile, binding with DNA and BSA of new imidazo[1,2-a]pyrazine-benzo[d]imidazol-5-yl hybrids” (Scientific Reports, 2020):

How the values were obtained:
NCI-H226 = assay: NCI cytotoxicity screen, Non-Small Cell Lung Cancer panel; format: cell-based, human; settings: Homo sapiens, single dose 10 µM, negative = lethal, read-out: Percent growth inhibition
Description: (§1) Cytotoxicity was performed at National Cancer Institute (NCI), Bethesda, USA as per their protocols.

NCI-H23 = assay: as above; format: cell-based, human; settings: Homo sapiens, single dose 10 µM, negative = lethal, read-out: Percent growth inhibition
Description: as §1

NCI-522 = assay: as above; format: cell-based, human; settings: Homo sapiens; NCI-522; single dose 10 µM; negative = lethal; read-out: Percent growth inhibition
Description: as §1

NCI-H322M = assay: as above; format: cell-based, human; settings: Homo sapiens, single dose 10 µM, negative = lethal, read-out: Percent growth inhibition
Description: as §1

HL-60(TB) = assay: NCI cytotoxicity screen, Leukemia panel; format: cell-based; settings: Homo sapiens, HL-60, HL-60(TB); single dose 10 µM; negative = lethal; read-out: Percent growth inhibition
Description: as §1

CCRF-CEM = assay: NCI cytotoxicity screen, Leukemia panel; format: cell-based; settings: Homo sapiens, single dose 10 µM, negative = lethal, read-out: Percent growth inhibition
Description: as §1

SR = assay: NCI cytotoxicity screen, Leukemia panel; format: cell-based; settings: Homo sapiens, single dose 10 µM, negative = lethal, read-out: Percent growth inhibition
Description: as §1

MOLT-4 = assay: NCI cytotoxicity screen, Leukemia panel; format: cell-based; settings: Homo sapiens, MOLT-4, MOLT-4; single dose 10 µM; negative = lethal; read-out: Percent growth inhibition
Description: as §1

IGROV1 = assay: NCI cytotoxicity screen, Ovarian Cancer panel; format: cell-based; settings: Homo sapiens, IGROV-1, single dose 10 µM, negative = lethal, read-out: Percent growth inhibition
Description: as §1

NCI/ADR-RES = assay: NCI cytotoxicity screen, Ovarian Cancer panel; format: cell-based; settings: Homo sapiens, single dose 10 µM, negative = lethal, read-out: Percent growth inhibition
Description: as §1

OVCAR-8 = assay: NCI cytotoxicity screen, Ovarian Cancer panel; format: cell-based; settings: Homo sapiens, single dose 10 µM, negative = lethal, read-out: Percent growth inhibition
Description: as §1

OVCAR-5 = assay: NCI cytotoxicity screen, Ovarian Cancer panel; format: cell-based; settings: Homo sapiens, single dose 10 µM, negative = lethal, read-out: Percent growth inhibition
Description: as §1

OVCAR-4 = assay: NCI cytotoxicity screen, Ovarian Cancer panel; format: cell-based; settings: Homo sapiens; OVCAR-4; single dose 10 µM; negative = lethal; read-out: Percent growth inhibition
Description: as §1

SK-OV-3 = assay: NCI cytotoxicity screen, Ovarian Cancer panel; format: cell-based; settings: Homo sapiens, single dose 10 µM, negative = lethal, read-out: Percent growth inhibition
Description: as §1

HCC-2998 = assay: NCI cytotoxicity screen, Colon Cancer panel; format: cell-based, human; settings: Homo sapiens; HCC-2998; single dose 10 µM; negative = lethal; read-out: Percent growth inhibition
Description: as §1

SW-620 = assay: NCI cytotoxicity screen, Colon Cancer panel; format: cell-based, human; settings: Homo sapiens, single dose 10 µM, negative = lethal, read-out: Percent growth inhibition
Description: as §1

KM12 = assay: NCI cytotoxicity screen, Colon Cancer panel; format: cell-based, human; settings: Homo sapiens, single dose 10 µM, negative = lethal, read-out: Percent growth inhibition
Description: as §1

HS 578 T = assay: NCI cytotoxicity screen, Breast Cancer panel; format: cell-based; settings: Homo sapiens; HS 578T; single dose 10 µM; negative = lethal; read-out: Percent growth inhibition
Description: as §1

BT-549 = assay: NCI cytotoxicity screen, Breast Cancer panel; format: cell-based; settings: Homo sapiens, single dose 10 µM, negative = lethal, read-out: Percent growth inhibition
Description: as §1

MCF7 = assay: NCI cytotoxicity screen, Breast Cancer panel; format: cell-based; settings: Homo sapiens, single dose 10 µM, negative = lethal, read-out: Percent growth inhibition
Description: as §1

MDA-MB-231/ATCC = assay: NCI cytotoxicity screen, Breast Cancer panel; format: cell-based; settings: Homo sapiens, MDA-MB-231, read-out: Percent growth inhibition
Description: as §1

MDA-MB-468 = assay: NCI cytotoxicity screen, Breast Cancer panel; format: cell-based; settings: Homo sapiens, single dose 10 µM, negative = lethal, read-out: Percent growth inhibition
Description: as §1

T-47D = assay: NCI cytotoxicity screen, Breast Cancer panel; format: cell-based; settings: Homo sapiens, T47D, T-47D; single dose 10 µM; negative = lethal; read-out: Percent growth inhibition
Description: as §1

RXF 393 = assay: NCI cytotoxicity screen, Renal Cancer panel; format: cell-based; settings: Homo sapiens, single dose 10 µM, negative = lethal, read-out: Percent growth inhibition
Description: as §1

UO-31 = assay: NCI cytotoxicity screen, Renal Cancer panel; format: cell-based; settings: Homo sapiens, single dose 10 µM, negative = lethal, read-out: Percent growth inhibition
Description: as §1

SN12C = assay: NCI cytotoxicity screen, Renal Cancer panel; format: cell-based; settings: Homo sapiens, single dose 10 µM, negative = lethal, read-out: Percent growth inhibition
Description: as §1

A498 = assay: NCI cytotoxicity screen, Renal Cancer panel; format: cell-based; settings: Homo sapiens, single dose 10 µM, negative = lethal, read-out: Percent growth inhibition
Description: as §1

ACHN = assay: NCI cytotoxicity screen, Renal Cancer panel; format: cell-based; settings: Homo sapiens, single dose 10 µM, negative = lethal, read-out: Percent growth inhibition
Description: as §1

[1] = Experimental log P, shake-flask method; format: physicochemical; settings: n-octanol/phosphate buffer pH 7.4, read-out: Exp. Log P
Description: Partition coefficients or experimental log P values of all synthesized compounds (9–23, 30 and 31) were calculated using the shake-flask method. Log P values were determined using n-octanol and phosphate buffer (pH = 7.4) at 10:1 ratio of volumes. Stock solutions (10^−3 M) of compounds were prepared in DMSO. Glass vials were used to make final solutions i.e. stock solution (250 µL) and phosphate buffer (125 µL). To record the absorbance, wavelength was selected based on λmax of the respective compound. Initial absorbance (Ai) for every compound was noted consuming the stock solution in the buffer phase. Now added n-octanol to every vial and shaken well using a mechanical shaker for 50 minutes. To get separation of both phases, glass vials were centrifuged for 35 min. at 2500 rpm. Then, the layer of octanol was separated from glass vial. The final absorbance (Af) of each compound was recorded by using the buffer layer. The values of P for compounds were determined by the following equation (Eq. 8):8 P=Ai−Af/Af×Vw/Vo

786-0 = assay: NCI cytotoxicity screen, Renal Cancer panel; format: cell-based, human; settings: Homo sapiens, single dose 10 µM, negative = lethal, read-out: Percent growth inhibition
Description: as §1

TK-10 = assay: NCI cytotoxicity screen, Renal Cancer panel; format: cell-based, human; settings: Homo sapiens, single dose 10 µM, negative = lethal, read-out: Percent growth inhibition
Description: as §1

UACC-62 = assay: NCI cytotoxicity screen, Melanoma panel; format: cell-based, human; settings: Homo sapiens, single dose 10 µM, negative = lethal, read-out: Percent growth inhibition
Description: as §1

M14 = assay: NCI cytotoxicity screen, Melanoma panel; format: cell-based, human; settings: Homo sapiens, single dose 10 µM, negative = lethal, read-out: Percent growth inhibition
Description: as §1

LOX IMVI = assay: NCI cytotoxicity screen, Melanoma panel; format: cell-based, human; settings: Homo sapiens, single dose 10 µM, negative = lethal, read-out: Percent growth inhibition
Description: as §1

OVCAR-3 = assay: NCI cytotoxicity screen, Ovarian Cancer panel; format: cell-based, human; settings: Homo sapiens; OVCAR-3; single dose 10 µM; negative = lethal; read-out: Percent growth inhibition
Description: as §1

DU-145 = assay: NCI cytotoxicity screen, Prostate Cancer panel; format: cell-based, human; settings: Homo sapiens, single dose 10 µM, negative = lethal, read-out: Percent growth inhibition
Description: as §1

PC-3 = assay: NCI cytotoxicity screen, Prostate Cancer panel; format: cell-based, human; settings: Homo sapiens, single dose 10 µM, negative = lethal, read-out: Percent growth inhibition
Description: as §1

EXVX = assay: NCI cytotoxicity screen, Non-Small Cell Lung Cancer panel; format: cell-based; settings: Homo sapiens; EXVX; single dose 10 µM; negative = lethal; read-out: Percent growth inhibition
Description: as §1

HOP-62 = assay: as above; format: cell-based; settings: Homo sapiens, single dose 10 µM, negative = lethal, read-out: Percent growth inhibition
Description: as §1

A549/ATCC = assay: as above; format: cell-based; settings: Homo sapiens; A549/ATCC; single dose 10 µM; negative = lethal; read-out: Percent growth inhibition
Description: as §1

NCI-H460 = assay: as above; format: cell-based; settings: Homo sapiens, single dose 10 µM, negative = lethal, read-out: Percent growth inhibition
Description: as §1

HOP-92 = assay: as above; format: cell-based; settings: Homo sapiens, single dose 10 µM, negative = lethal, read-out: Percent growth inhibition
Description: as §1

For `c1ccc(-c2cn3ccnc3c(-c3ccc4c(c3)ncn4C3CCCCC3)n2)cc1` [Compound 9, 8-(1-cyclohexyl-1H-benzo[d]imidazol-5-yl)-6-phenylimidazo[1,2-a]pyrazine], the inhibition at 10 µM (NCI-H226) was less than 1%, the inhibition at 10 µM (NCI-H23) was less than 1% and the inhibition at 10 µM (NCI-522) was 16.1%. For the same compound, the inhibition at 10 µM (NCI-H322M) was 2.91%, the inhibition at 10 µM (HL-60(TB)) was 19.4% and the inhibition at 10 µM (CCRF-CEM) was 11.7%. The inhibition at 10 µM (SR) was 44.6%, the inhibition at 10 µM (MOLT-4) was 39.7% and the inhibition at 10 µM (IGROV1) was less than 1%. It also gave an inhibition at 10 µM (NCI/ADR-RES) of less than 1%, an inhibition at 10 µM (OVCAR-8) of less than 1% and an inhibition at 10 µM (OVCAR-5) of less than 1%. For the same compound, the inhibition at 10 µM (OVCAR-4) was less than 1%, the inhibition at 10 µM (SK-OV-3) was less than 1% and the inhibition at 10 µM (HCC-2998) was less than 1%. It also gave an inhibition at 10 µM (SW-620) of less than 1%, an inhibition at 10 µM (KM12) of 5.7% and an inhibition at 10 µM (HS 578 T) of less than 1%. For the same compound, the inhibition at 10 µM (BT-549) was 0.43%, the inhibition at 10 µM (MCF7) was 15.8% and the inhibition at 10 µM (MDA-MB-231/ATCC) was 6.64%. For the same compound, the inhibition at 10 µM (MDA-MB-468) was less than 1%, the inhibition at 10 µM (T-47D) was 25.5% and the inhibition at 10 µM (RXF 393) was 23.3%. It also gave an inhibition at 10 µM (UO-31) of 20.9%, an inhibition at 10 µM (SN12C) of 4.83% and an inhibition at 10 µM (A498) of less than 1%. For the same compound, the inhibition at 10 µM (ACHN) was less than 1%, the melting point was 195 to 198 °C and the logP [1] was 1.59. The inhibition at 10 µM (786-0) was 8.24%, the inhibition at 10 µM (TK-10) was less than 1% and the inhibition at 10 µM (UACC-62) was 2.01%. It also gave an inhibition at 10 µM (M14) of 1.61%, an inhibition at 10 µM (LOX IMVI) of 4.86% and an inhibition at 10 µM (OVCAR-3) of less than 1%. For the same compound, the inhibition at 10 µM (DU-145) was 2.64%, the inhibition at 10 µM (PC-3) was 13.5% and the inhibition at 10 µM (EXVX) was 2.51%. It also gave an inhibition at 10 µM (HOP-62) of 12.9%, an inhibition at 10 µM (A549/ATCC) of 9% and an inhibition at 10 µM (NCI-H460) of less than 1%. For the same compound, the inhibition at 10 µM (HOP-92) was 10.9%.
